From PubChem BioAssay (NCI)
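Cultured in 96-well plates, cells were exposed to test compound for 48 hours across five concentrations. TGI: total growth inhibition.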

How the values were obtained:
Experiment in all cases: NCI tumour cell line growth inhibition, 48 h
[1] = tested on: CCRF-CEM leukemia
[2] = tested on: SK-MEL-2 melanoma
[3] = tested on: HS 578T breast
[4] = tested on: BT-549 breast
[5] = tested on: HCT-15 colon
[6] = tested on: SNB-75 CNS
[7] = tested on: T-47D breast
[8] = tested on: MDA-MB-231 breast
[9] = tested on: A549 NSCLC
[10] = tested on: NCI-H522 lung
[11] = tested on: OVCAR-3 ovarian

Compound | TGI [1] [µM] | TGI [2] [µM] | TGI [3] [µM] | TGI [4] [µM] | TGI [5] [µM] | TGI [6] [µM] | TGI [7] [µM] | TGI [8] [µM] | TGI [9] [µM] | TGI [10] [µM] | TGI [11] [µM]
ONC1=Nc2cc(Cl)ccc2C(=S)N2CSCC12 (configuration not stated) | > 100 | > 100 | > 100 | > 100 | > 100 | > 100 | > 100 | > 100 | > 100 | > 100 | > 100
CC1(C)N/C(=C\[N+](=O)[O-])C(C)(C)N1O | > 10 | > 10 | > 10 | > 10 | > 10 | > 10 | > 10 | > 10 | > 10 | > 10 | > 10
COC(=O)c1csc([C@@H](OC(=O)[C@H](C)[C@H](CCCC(C)(Cl)Cl)OC(=O)c2csc([C@H](O)CO)n2)C(C)C)n1 | 34.8 | 28.9 | 6.65 | 31 | 31 | 11 | 36.5 | 36.1 | 32.1 | 32.9 | 30.8
C=CCCON(C(=O)OC(C)(C)C)c1ccccc1 | > 100 | > 100 | > 100 | > 100 | > 100 | > 100 | > 100 | > 100 | > 100 | > 100 | > 100
COc1cc2c(cc1OCCCCCCCCCCN1C(=O)c3cccc4cccc(c34)C1=O)N=C[C@@H]1CCCN1C2=O |  | 20.3 | 75.3 | 20.9 | 16.9 | 21.3 | > 100 | 20.4 | 82.4 | 28.9 | 20.3
C=C(C)C1CCC(C(=O)O)CC1 (configuration not stated) | > 100 | > 100 | > 100 | > 100 | > 100 | > 100 | > 100 | > 100 | > 100 | > 100 | > 100
OC(CC1CCCCN1)c1ccc2c(c1)oc1ccccc12 (configuration not stated) | > 100 | > 100 | > 100 | > 100 | > 100 | > 100 | > 100 | > 100 | > 100 | > 100 | > 100
O=C1CS(=O)(=O)C(c2cccc(Oc3ccccc3)c2)N1c1ccc(Cl)cc1 (configuration not stated) | > 100 | 31.9 | > 100 | 90.1 | > 100 | > 100 | > 100 | > 100 | > 100 | 68.9 | > 100
CCOC(=O)CCC(NC(=O)c1ccc(Nc2nc3ccc(C(F)(F)F)cc3nc2-c2ccccc2)cc1)C(=O)OCC (configuration not stated) | > 100 | 49.7 | 85.1 | > 100 | > 100 | > 100 | 60.4 | 58.9 | > 100 | 55.2 | 76
C=CCn1c(N)c(C#N)c(C#N)c1CCC | > 100 | > 100 | > 100 | > 100 | > 100 | > 100 | > 100 | > 100 | > 100 | > 100 | > 100
CS(=O)(=O)C(C#N)c1nc2ccccc2nc1Cl (configuration not stated) | > 100 | > 100 | > 100 | > 100 | > 100 | > 100 | > 100 | > 100 | > 100 | > 100 | > 100
Cc1ccc(C(=O)N/N=C(\N=Nc2cccc([N+](=O)[O-])c2)c2ccc(N(CCC#N)CCC#N)cc2C)cc1 | > 69.2 | > 77.3 | > 88.3 | > 78.5 | > 100 | 74.1 | 50.7 | > 79.2 | > 100 | > 100 | 6.71
Cc1cccc(Cl)c1NCC(O)CN1CCN(C)CC1 (configuration not stated) | > 100 | > 100 | > 100 | > 100 | > 100 | > 100 | > 100 | > 100 | > 100 | > 100 | > 100
COC(=O)[C@@H]1C=C[C@H](OC2OC(COC(C)=O)C(OC(C)=O)C(OC(C)=O)C2OC(C)=O)n2c(=O)n(-c3ccccc3)c(=O)n21 (some centres not stated) | 4.42 | 5.05 | 45.8 | 6.26 | 3.85 | 13 | 8.75 | 8.42 | 30.8 | 1.07 | 3.24
O=S(=O)(O)c1ccc(N=Nc2ccc3c(S(=O)(=O)O)cccc3c2O)c2ccccc12 |  | > 100 | > 100 | > 100 | > 100 | > 100 | > 100 | > 100 | > 100 | > 100 | > 100
Cc1cc(C)nc(NS(=O)(=O)c2ccc(Nc3c4ccccc4nc4ccc(C(=O)Nc5ccc(S(N)(=O)=O)cc5)cc34)cc2)n1 | > 100 | > 100 | > 100 | 73.5 | > 100 | > 100 | > 100 | 52.6 | > 100 | > 100 | > 100
CC(=O)C(C(c1ccccc1)N1CCOCC1)N1CCOCC1 (configuration not stated) | > 100 | > 100 | > 100 | > 100 | > 100 | > 100 | > 100 | > 100 | > 100 | > 100 | > 100
COc1cc2c(cc1O)c(O)cc1c3cc(OC)c(OC)cc3c[n+](C)c21 | > 100 | > 100 | > 27.4 | > 100 | > 100 | > 100 | > 80.3 | > 67.9 | > 100 | 25.2 | > 100

Compound | TGI [1] [µM] | TGI [2] [µM] | TGI [3] [µM] | TGI [4] [µM] | TGI [5] [µM] | TGI [6] [µM] | TGI [7] [µM] | TGI [8] [µM] | TGI [9] [µM] | TGI [10] [µM] | TGI [11] [µM]
COC(=O)C1=C(OC(=O)/C(=C/c2ccccc2)c2ccc(Cl)cc2Cl)C(C(=O)OC)[C@@]2(O)[C@@H](C(=O)OC)[C@H](C)C[C@@H]1[C@@H]2C(=O)OC (some centres not stated) | > 100 | > 100 | > 100 | > 100 | > 100 | > 100 | > 100 | > 100 | > 100 | > 100 | > 100
O=C(CSc1nnc(-c2ccccn2)s1)N/N=C/c1ccccc1 | > 100 | > 100 | > 100 | > 100 | > 100 | 17 | > 100 | > 100 | > 100 | > 100 | > 100
CCOC(=O)c1sc(=S)n(-c2ccc(Cl)cc2)c1-n1cc(-c2ccccc2)c(C#N)c1N | > 100 | 64 | 14.5 | 48.1 | > 100 | 53.6 | 27.8 | 60.1 | 42.4 | 14.5 | 32.6
Clc1ccc(CCN(CCc2ccc(Cl)c(Cl)c2)CCN2CCCC2)cc1Cl | 2.73 | 3.04 | 4.47 | 3.65 | 3.28 | 4.73 | 12.3 | 2.91 | 3.15 | 3.2 | 3.2
COc1ccc(/C=C2\N=C(N3CCCCC3)NC2=O)cc1 | > 100 | > 100 | > 100 | > 100 | > 100 | > 100 | > 100 | > 100 | > 100 | > 100 | > 100
O=C(/C=C/c1ccc(O)c(O)c1)OCC(OC(=O)/C=C/c1ccc(O)c(O)c1)C(=O)O (configuration not stated) | > 100 | > 100 | > 100 | > 100 | > 100 | > 100 | > 100 | > 100 | > 100 | > 100 | > 100
CS(=O)(=O)Nc1ccc2ccccc2c1-c1c(NS(C)(=O)=O)ccc2ccccc12 | > 25 | > 25 | > 25 | > 25 | > 25 | > 25 | > 25 | > 25 | > 25 | > 25 | > 25
C#CCn1c(=O)c(I)cn(/C(=C/C(=O)OCC)C(=O)OCC)c1=O | > 57.7 | 33 | > 100 | 26.2 | 8.03 | 31.2 | 2.28 | 29.5 | 36 | 2.37 | 3.37
C=C(CCOC)CCC1CCCCC(CN(C)C)C1=O (configuration not stated) | > 100 | > 100 | > 100 | > 100 | > 100 | > 100 | > 100 | > 100 | > 100 | > 100 | > 100
Cc1n(CC(C)C)c2c([n+]1C)C(=O)c1ccccc1C2=O | 27 | 0.524 | 3.05 | 0.61 | 4.39 | 1.55 | 0.441 | 0.344 | 1.34 | 0.0386 | 0.0961
CCOC(=O)/C=C(\C(=O)OCC)n1cc(C)c(=O)n(Cc2cn(CCCCOC(C)=O)nn2)c1=O | 5.58 | 36.4 | 42.3 | 23.1 | > 44.2 | 30.3 | > 47.5 | 34.6 | 36.1 | 3.01 | 31.5
CC(=O)OCC1OC(N2C(C)=C(C(C)=O)C(c3ccc(Cl)cc3)C(C#N)=C2S)C(OC(C)=O)C(OC(C)=O)C1OC(C)=O (configuration not stated) | > 100 | > 100 | > 100 | > 100 | > 100 | > 100 | > 100 | > 100 | > 100 | > 100 | > 100
COc1ccc2c(c1)/C(=C\c1c(Cl)[nH]c3cc(C)c(OC)cc13)C(=O)N2 | > 35.5 | 18.5 | > 50.7 | 7.95 | 5.96 | 4.9 | 40.5 | 13.7 | 18.2 | 6.78 | 1.71
COC(=O)C1Cc2cc3c(cc2C1=O)CCC3 (configuration not stated) | > 100 | > 100 | > 100 | > 100 | > 100 | > 100 | > 100 | > 100 | > 100 | > 100 | > 100
CC1(C)[C@@H]2CC[C@]1(C)[C@H](OC(=O)CSC#N)C2 |  | > 100 | > 100 | > 100 | > 100 | > 100 | > 100 | > 100 | > 100 | > 100 | > 100
O=C1NC(=S)N/C1=C\c1cccs1 | > 100 | > 100 | > 100 | > 100 | > 100 | > 100 | > 100 | > 100 | > 100 | > 100 | > 100
OC(CNc1ccccn1)c1ccccc1 (configuration not stated) | > 100 | > 100 | > 100 | > 100 | > 100 | > 100 | > 100 | > 100 | > 100 | > 100 | > 100
